Marks after values point to notes of the source that are not given here.
Assay: Photophysical properties of fluorophores and RNA-fluorophore complexes (Squash study)
Assay type: physicochemical
Procedure: All RNAs used for in vitro studies (except the initial hits from SELEX and the DE2-6 mutants) were purified using 8% denaturing PAGE (7M urea) and eluted in 0.3 M NaOAc (pH 5.2) overnight. The RNA was ethanol precipitated and quantified using absorbance in a NanoDrop 2000 spectrometer. All in vitro RNA properties were measured in 40 mM HEPES-KOH (pH 7.4), 100 mM KCl, 0.5 mM MgCl2 buffer unless specified.
Absorption, excitation, and emission spectra were measured using conditions where the RNA is in excess and the fluorophore is limiting to ensure that no free fluorophore contributes to the absorbance or fluorescence signal (FIGS. 7A-7D).
All quantum yields were determined by comparing each RNA-fluorophore complex with Broccli-DFHBI-1T or Corn-DFHO. All measurements for quantum yield were taken in the presence of excess RNA (10 μM final) compared to the fluorophores (0.2 μM final) to avoid interference from unbound fluorophore. The integral of the emission spectra for each Squash-fluorophore complex was compared with the corresponding integrals for Broccoli or Corn to calculate the quantum yield.

[1] = 40 mM HEPES-KOH (pH 7.4), 100 mM KCl, 0.5 mM MgCl2

- Emission maximum [1]: 495 nm
- Excitation maximum [1]: 426 nm
- Fluorescence quantum yield (compared with Broccoli-DFHBI-1T or Corn-DFHO): 0.00098
- Extinction coefficient (free DFHBI-1T, at 452 nm): 19,900* M^−1cm^−1
- Brightness (extinction coefficient × quantum yield) (relative to Broccoli): 0.12
Compound: CC1=N/C(=C\c2cc(F)c(O)c(F)c2)C(=O)N1CC(F)(F)F [DFHBI-1T, (Z)-4-(3,5-difluoro-4-hydroxybenzylidene)-2-methyl-1-(2,2,2-trifluoroethyl)-1H-imidazol-5(4H)-one]
